Assay results taken from patent publication US20190365745A1, “USE OF CHRONIC TREATMENT WITH ATR INHIBITORS TO SENSITIZE CANCER CELLS TO PARP INHIBITORS” (Cornell University, priority 2018, published 2019).

Legend:
[1] = system: hTERT RPE-1 cells; experiment: DR-GFP assay of HR-mediated repair; type: cell-based, Human; conditions: ATRi 8 days vs 2 days
Description: (§1) FIGS. 14A-14B show WB analysis of hTERT RPE-1 (FIG. 14A) or HCT116 (colon cancer)(FIG. 14B) cells after 8 day chronic treatment with 5 μM ATRi or ATMi. […] FIGS. 14D-14E are bar graphs showing the analysis of HR-mediated repair using the DR-GFP system. Relative fold change of GFP positive hTERT RPE-1 (FIG. 14D) or HCT116 (FIG. 14E) cells over DMSO after ATRi treatment. (Error bars=SEM, N≥3, ****P-value<0.0001; one sample-t-test was used for the statistical analysis comparing 2 days versus 8 days of treatment).
(§2) Human U2OS, HCT116, hTERT RPE-1, HEK293T, HeLa, U87, T98G, A2780, and human skin fibroblast cells (GM08398 and GM18366) were grown in DMEM media supplemented with 10% bovine calf serum, penicillin/streptomycin and non-essential amino acids. […]
(§3) For the DR-GFP assay, cells (U2OS, HCT116, hTERT RPE-1, HEK293T, HeLa, U87, T98G, A2780, 293-T-REX-E2F6 cells and SV40 large T antigen transformed hTERT RPE-1) were transfected with the mCherry plasmid or DR-GFP reporter plasmid (pDR-GFP; addgene plasmid 26475) together with a plasmid coding for I-SceI (pCBASceI; addgene plasmid 26477) or DR-GFP reporter plasmid together with an empty plasmid pCAGGS. Two days after transfection, cells were trypsinized, resuspended in PBS and then analyzed by flow cytometry using FACSAria Fusion or Accuri C6 cytometer (BD). […]

[2] = system: HCT116 colon cancer cell line; experiment: DR-GFP assay of HR-mediated repair; type: cell-based, Human; conditions: ATRi 8 days vs 2 days
Description: as §1, §2, §3

With `CS(=O)(=O)c1ccc(-c2cnc(N)c(C(=O)Nc3ccccc3)n2)cc1` [ATRi, VE-821] as the compound, how does the “HR-mediated repair efficiency (DR-GFP), chronic vs short-term (2 day) treatment” value [1] read?
Its value is “did not result in a striking drop in HR-mediated repair efficiency”.

What about the “HR-mediated repair efficiency (DR-GFP), chronic vs short-term treatment” value [2] of the same compound?
The value was “significantly more severe than that of short-term treatment”.
